The values below are quoted from earlier work in patent US20060193787A1, “Nanoparticle-based drug delivery system” (priority 2005, published 2006).

The conditions of this data set: oral delivery.

In the case of `CC(=O)O[C@H]1C(=O)[C@@]2(C)[C@H]([C@H](OC(=O)c3ccccc3)[C@]3(O)C[C@H](OC(=O)[C@H](O)[C@@H](NC(=O)c4ccccc4)c4ccccc4)C(C)=C1C3(C)C)[C@]1(OC(C)=O)CO[C@@H]1C[C@@H]2O` [paclitaxel], the Bioavailability result was “less than 1%”.
